Measurements: paper PMC9227536, “Prediction of Pharmacokinetics of IDP-73152 in Humans Using Physiologically-Based Pharmacokinetics” (Pharmaceutics, 2022)
Where two headings read alike, the source gives them in different places.

Key:
[1] = PK study in mice (intravenous and oral); format: in vivo, male ICR mice
Procedure: The in vivo experimental protocol was approved by the Institutional Animal Care and Use Committee of Research Laboratory at Ildong pharmaceutical Co., Ltd. (Ref. No.: IDL-PDF-001 and 09005-11004). Animals were acclimatized to the laboratory conditions for at least 1 week before the experiments and were kept in the standardized conditions (20–25 °C, 55 ± 5% humidity, and a 12 h light/dark cycle). The animals fasted overnight prior to drug administration, and food was resupplied 4 h post-dose. In this study, a single dose of IDP-73152 at 10 mg/kg (i.e., the injection volume of 5 mL/kg, IDP-73152 dissolved in saline) was intravenously administered to male ICR mice (body weight 18.2–21.4 g, Orient Bio Inc., Seongnam, Korea) via the tail vein. […] Blood samples (100 μL) were collected from the retroorbital plexus at 0.167, 0.333, 0.5, 1, 2, 4, or 8 h after the administration. Plasma was separated/collected from the blood samples by centrifugation for 5 min at 10,000× g/4 °C and stored at −80 °C until analysis. When necessary for a model independent PK analysis, a standard moment analysis was carried out with WinNonlin software using either representative (for the study with mice) or individual (for the study with rats, dogs, and humans) concentration–time profile(s). For the calculation of PBPK models, Berkeley Madonna 8.3.18 (Albany, CA, USA) was used with the fourth-order Runge–Kutta method for numerical integration.

[2] = Metabolic stability in liver microsomes, dog; format: in vitro ADME
Procedure: In this study, the metabolic stability of IDP-73152 in microsomes from mice, rats, dogs, and humans, as well as rat hepatocytes, was determined. For a microsomal incubation study, the incubation mixtures, containing mouse, rat, dog, or human liver microsomes at a protein concentration of 0.5 mg/mL, 3.3 mM MgCl2, and 1.3 mM NADPH, in a 100 mM potassium phosphate buffer (pH 7.4), were preincubated for 3 min at 37 °C. In parallel, a control incubation mixture (i.e., identical composition to that of the incubation mixture without NADPH) was also prepared for comparison. The reaction was initiated by the addition of a 10 × solution of IDP-73152 (final concentration in mixtures of 1 μM) to the incubation mixtures or the control incubation mixtures. The mixtures were incubated in a shaking water bath (37 °C, 90 rpm). Aliquots (30 μL) were collected at 0, 15, 30, and 45 min from the mixture and the reaction was terminated by the addition of a 4-fold volume of ice-cold acetonitrile to the sample. The mixture was then vortexed for 5 min and centrifuged for 10 min at 10,000× g. The supernatant was collected and stored at -80 °C until the analysis. For the hepatocyte incubation study, rat hepatocytes were freshly prepared using the two-step collagenase perfusion method with slight modifications. After the isolation, cell viability during the preparation process was first determined by a trypan blue exclusion assay prior to the stability study. The preparation was considered adequate for subsequent studies if the viability was greater than 80%. When appropriate, the hepatocytes were resuspended in Williams' media E containing 10% fetal bovine serum, 1% penicillin-streptomycin, and 0.01% insulin-transferrin-selenium (i.e., 10 mg/mL insulin, 5.5 mg/mL transferrin, and 5 mg/mL selenium) at pH 7.4. The reaction was carried out with the hepatocyte suspension prepared at 1 × 10^6 cells/mL (0.5 mL) and initiated by the addition of equal volume of IDP-73152 solution (i.e., final concentration of the compound at 1 μM in 0.5 × 10^6 cells/mL of hepatocytes) to the hepatocyte suspension. […] Assuming first-order disappearance kinetics, the slope k of the logarithmically transformed IDP-73152 concentration in the sample versus time plot was determined by the linear regression analysis of the data. The total intrinsic clearance (CLint,mic, μL/min/mg protein for microsomal incubation study and CLint,hep, μL/min/million cells for hepatocytes incubation study) was then calculated using the following equations:(4) CLint, mic=k×Volume of incubation medium (μL)/Protein in incubation medium (mg) (5) CLint,hep=k×Volume of incubation (μL)/Number of cells in incubation (×10^6) The unbound intrinsic clearance, with respect to the whole liver ([…]), was then estimated for the two cases. […]

[3] = tested on: the bacterial strains; experiment: In vitro minimum inhibitory concentration, preliminary screening; format: cell-based; settings: preliminary screening study, against the bacterial strains
[4] = male, ICR, mouse, plasma, oral 20 mg/kg

## CC(C)(C)[C@H](NC(=O)[C@H](CC1CCCC1)CN(O)C=O)C(=O)N1CCC(NCc2cc(F)c(F)cc2F)CC1 [IDP-73152]
[1]; male, ICR, mouse, plasma, intravenous 10 mg/kg, moment analysis, read-out: Vss
  Vd: 1.43 L/kg
[1]; male, ICR, mouse, plasma, intravenous 10 mg/kg, read-out: t1/2 (converted)
  half-life: 43.9 min
[1]; male, ICR, mouse, plasma, intravenous 10 mg/kg, representative concentration–time profile, read-out: CLp (converted)
  clearance: 25.3 mL/min/kg
[1]; male, ICR, mouse, plasma, iv, 10 mg/kg, intravenous 10 mg/kg
  AUC(0-inf): 6590 ng·h/mL
[1]; [4]
  Cmax: 3100 ng/mL
  Tmax: 20 min
[1]; male, ICR, mouse, plasma, oral 20 mg/kg vs intravenous 10 mg/kg, read-out: F (bioavailability)
  bioavailability: 78.1%
[1]; male, ICR, mouse, plasma, oral 20 mg/kg, read-out: t1/2 (terminal phase half-life) (converted)
  half-life: 172 min
[1]; male, ICR, mouse, plasma, po, 20 mg/kg, oral 20 mg/kg
  AUC(0-inf): 10900 ng·h/mL
[1]; oral 20 mg/kg, 20 mg/kg
  AUCinf: 10300 ng·h/mL
[2]; dog, liver microsomes, pH 7.4, dogs, read-out: CLh calculated from the CLint,mic (converted)
  CLhep predicted at 1 μM: 8.87 mL/min/kg
[2]; dog, pH 7.4, dogs liver microsomes 0.5 mg/mL, 1 μM, read-out: CLint,mic
  microsomal CLint at 1 μM: 62.6 ± 2.4 µL/min/mg
[2]; dogs, from microsomal clearance, well-stirred model
  hepatic ER (extraction ratio): 0.106 ± 0.004
[2]; dogs, scaled up to the whole liver from microsomes
  CLu,int,H: 108 ± 4 L/h
[3]
  in vitro minimum inhibitory concentration values: comparable to, or less than, those of linezolid and vancomycin
